Reference: patent publication US20090036516A1, “COMPOUNDS FOR TREATING METABOLIC SYNDROME” (CTG PHARMA S.R.L., priority 2003, published 2009)

What was measured:
[1] = tested on: male Wistar rats; assay: oxidative stress-induced (BSO) hypertension in rats; assay type: in vivo; settings: BSO 30 mmol/L/day in drinking water for seven days; compound 50 mg/kg/day for seven days
Description: It is widely known that metabolic syndrome is generally accompanied by oxidative stress. Also in the paper of Ogihara (Ogihara T. et al. “Oxidative stress induces insulin resistance by activating the nuclear factor-kB pathway and disrupting normal subcellular distribution of phosphatidylinositol 3-kinase” in Diabetologia 47, 794-805 (2004) such relationship was found. The effect of oxidative stress-induced hypertension in rats has been evaluated in male Wistar rats (10 animals/group). Hypertension was induced by oral administration of buthionine sulphoximine (BSO) (30 mmol/L/day) to the drinking water for seven days.
Compounds of examples 2, 3 and 5 suspended in the vehicle at the dose of 50 mg/kg/day were administered for seven days and some parameters measured in the experiments are reported in table 2.

[2] = tested on: patients with type II diabetes; settings: oral 600 mg once to 3 times a day; cited from earlier work
[3] = tested on: patients with type II diabetes; settings: single parenteral dose of 1,000 mg; cited from earlier work
[4] = tested on: diabetic neuropathy; settings: intravenous 600 mg a day for 3 weeks; cited from earlier work
[5] = tested on: high-fat diet fed insulin resistant mice; assay: hyperinsulinemic euglycemic clamp in high-fat diet fed insulin resistant mice; assay type: in vivo; settings: 50 mg/kg/day by gavage for 7 days; steady state phase of hyperinsulinemic euglycemic clamp; n = 8
Protocol: The effects of administration of 50 mg/kg/day of the compound of Example 2, by gavages to high-fat diet fed insulin resistant mice [Cook et al. Diabetes, 53:2067-72, 2004] for 7 days, in terms of glucose infusion rate (mg/kg per min, during the steady state phase of hyperinsulinemic euglycemic clamp studies) were reported in the following table 1: […]

Structure (SMILES)	% Increase systolic blood pressure [1]	% Plasma glutathione decrease [1]	Endothelium function (% contraction induced by acetylcholine) [1]	insulin sensitivity [2]	glucose utilization [3]	symptomatic complaints [4]	glucose infusion rate [5]
O=C(Oc1ccc(-c2cc(=S)ss2)cc1)c1ccccc1O [Cpd Ex 8, 2-hydroxybenzoic acid 4-(thioxo-5H-[1,2]dithiol-3-yl)-phenyl ester]	15%	7%	80%	–	–	–	–
CCOC(=O)c1ccccc1OC(=O)CCCCC1CCSS1 (stereo not shown) [Cpd Ex 6, 2-(5-[1,2]Dithiolan-3-yl-pentanoyloxy)-benzoic acid ethyl ester]	50%	20%	60%	–	–	–	–
O=C(O)CCCC[C@@H]1CCSS1 (racemic) [lipoic acid]	–	–	–	able to influence the insulin sensitivity	distinct improvement	decreased	–
CC(=O)Oc1ccccc1C(=O)Oc1ccc(-c2cc(=S)ss2)cc1 [Cpd Ex 5, 2-acetoxy-benzoic acid 4-(thioxo-5H-[1,2]dithiol-3-yl)-phenyl ester]	10%	5%	88%	–	–	–	86.4 mg/kg per min
